Molecules are shown by their SMILES.

Data set [1] relates to I.C.R. Swiss albino mice. The data set is described as follows: Chemical analgesia, acetic acid writhing technique. The format is in vivo. The settings on record: for No. of writhes: 30 min before acetic acid, noted 20 min after, x ± S.E.M.; for analgesic activity compared with dextropropoxyphene (in words): acetic acid writhing, i.p. How it is done:
2. Chemical analgesia The analgesic effect has been studied in I.C.R. Swiss albino mice, employing the acetic acid writhing technique. Batches of 10 mice were made.
The products studied were administered intraperitoneally, and after 30 minutes the mice were injected intraperitoneally with 0.25 ml of 1% acetic acid. A batch of control animals received only the acetic acid. Note was made of the number of writhes in each mouse 20 minutes following injection of the acetic acid.
(In general: An intraperitoneal irritant provokes the stretching counted in writhing tests.)

For data set [2], the system named is I.C.R. Swiss albino mice. Briefly: Thermal analgesia, 55° C. "hot plate" technique. The conditions noted are these: for Jumping time: 30 min before 55° C. hot plate, x ± S.E.M.; for thermal analgesic activity (in words): hot plate, i.p. The class given is in vivo. How it is done: The thermal analgesic effect has been studied in I.C.R. Swiss albino mice. The 55° C. "hot plate" technique was used. Batches of 10 mice were made. The products in study were administered intraperitoneally and after 30 minutes the mice were placed on the hot plate and note was made, in seconds, of the time it took them to jump. Batches were made of control animals injected only with distilled water.

Data set [3] can be described thus: Acute toxicity (LD50, Litchfield-Wilcoxon test, intraperitoneal). Also noted: species or system I.C.R. Swiss albino mice. The conditions noted are these: mouse, in vivo, ip, mice, deaths noted 48 hours after treatment. How it is done:
A--ACUTE TOXICITY Acute toxicity studies have been made in I.C.R. Swiss albino mice of both sexes of a weight of 30±2 g, kept without food for 24 hours prior to the experiment. Ambient temperature and relative humidity were held constant. The products were administered intraperitoneally, with the number of deaths noted 48 hours from the moment of treatment. Calculation of the lethal dose 50 (LD50) was made by the Litchfield-Wilcoxon test.

The mark [4] stands for this setting: 25 mg/kg i.p., control 109.9 ± 6.362.
The mark [5] stands for this setting: 30 mg/kg i.p., control 122.1 ± 9.15.
The mark [6] stands for this setting: 25 mg/kg i.p., control 30.9 ± 5.016.
Where [7] appears, read: 50 mg/kg i.p., control 48.8 ± 5.033.

As for `CCC(=O)O[C@](Cc1ccccc1)(c1ccccc1)[C@H](C)CN(C)C` [Dextropropoxyphene, dextropropoxyphene, reference compound], the No. of writhes in the data set with I.C.R. Swiss albino mice [1] (setting [4]) was determined as 27.8 ± 8.365; in the data set on I.C.R. Swiss albino mice [1] (setting [5]), 24 ± 6.03. Moreover, the results for the Jumping time in the data set with I.C.R. Swiss albino mice [2] (setting [6]) and in the data set on I.C.R. Swiss albino mice [2] (setting [7]) were 70.8 ± 13.592 s and 91.3 ± 7.894 s, respectively.

The term LD50 denotes the dose expected to kill half of the subjects tested. Read a low LD50 as greater toxicity. On to `CC1=CCN(C)C(Cc2cc3ccccc3s2)C1` (centres unmarked) [Product II, 2-(2-benzo[b]thienylmethyl)-1,4-dimethyl-1,2,3,6-tetrahydropyridine], for which the median lethal dose (LD50) at 48 h in data set [3] came to 916 mg/kg. Moreover, in the data set with I.C.R. Swiss albino mice [1] (setting [4]), the No. of writhes is 41.2 ± 6.024. Further, the “analgesic activity compared with dextropropoxyphene (in words)” value in the data set on I.C.R. Swiss albino mice [1] is “not significantly different from that of dextropropoxyphene”. In addition, the Jumping time in the data set on I.C.R. Swiss albino mice [2] (setting [7]) is 63 ± 8.368 s. Besides, the “thermal analgesic activity (in words)” value in the data set with I.C.R. Swiss albino mice [2] was “lacks any thermal analgesic activity”.

The compound `CN1CCC2(C)CC1Cc1sc3ccccc3c12` (racemic) [Product I, 2,5-dimethyl-benzo[b]thiene[3,2-f]morphan] had an LD50 at 48 h in data set [3] of 90.8 mg/kg. This compound also came in with a No. of writhes with I.C.R. Swiss albino mice [1] (setting [5]) of 44.3 ± 6.14. In addition, the “analgesic activity compared with dextropropoxyphene (in words)” value in the data set with I.C.R. Swiss albino mice [1] is listed as “has analgesic activity, but of lesser intensity than that of dextropropoxyphene”. Also, in the data set on I.C.R. Swiss albino mice [2] (setting [6]), the Jumping time came to 48.9 ± 8.956 s. Further, the “thermal analgesic activity (in words)” value in the data set with I.C.R. Swiss albino mice [2] is listed as “lacks any thermal analgesic activity”.

(Values after patent US4178450A, “2,5-Dimethyl-benzo(b) thiene (3,2-f) morphan and precursor thereof” (priority 1977, dated 1979).)
